Measurements reported in patent US20210070748A1, “INHIBITORS OF BRUTONS TYROSINE KINASE” (Pharmacyclics LLC, priority 2015, published 2021).

How the values were obtained:
TEC = target: T1, TEC (Homo sapiens, UniProt P42680); assay: Inhibition of a panel of kinases, in vitro HotSpot kinase assay: TEC; type: biochemical; conditions: D-compounds panel data; 1 μM ATP
T1 sequence (P42680 1-631): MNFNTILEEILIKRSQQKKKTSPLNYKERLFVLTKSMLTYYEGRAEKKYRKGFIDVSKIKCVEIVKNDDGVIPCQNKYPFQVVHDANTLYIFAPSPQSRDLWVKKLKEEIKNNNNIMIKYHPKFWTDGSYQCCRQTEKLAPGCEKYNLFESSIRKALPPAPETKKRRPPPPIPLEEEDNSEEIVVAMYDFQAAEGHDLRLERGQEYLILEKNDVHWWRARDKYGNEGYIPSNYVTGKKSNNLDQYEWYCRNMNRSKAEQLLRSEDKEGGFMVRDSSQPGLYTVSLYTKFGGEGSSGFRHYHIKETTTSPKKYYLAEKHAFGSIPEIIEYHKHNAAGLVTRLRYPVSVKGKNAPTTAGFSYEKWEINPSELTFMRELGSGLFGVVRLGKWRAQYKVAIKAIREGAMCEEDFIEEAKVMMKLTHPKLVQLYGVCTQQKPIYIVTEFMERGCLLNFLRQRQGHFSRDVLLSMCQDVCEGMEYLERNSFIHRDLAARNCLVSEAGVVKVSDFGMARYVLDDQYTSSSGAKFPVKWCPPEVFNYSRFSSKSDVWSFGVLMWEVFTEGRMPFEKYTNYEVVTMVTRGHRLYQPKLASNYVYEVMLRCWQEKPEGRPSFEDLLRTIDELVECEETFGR
Method: The degree of inhibition of a panel of kinases is determined using the in vitro HotSpot kinase assay (purified enzymes, ^33P-ATP, an appropriate substrate and 1 μM ATP).

JAK3 = target: T2, JAK3 (Homo sapiens, UniProt P52333); assay: Inhibition of a panel of kinases, in vitro HotSpot kinase assay: JAK3; type: biochemical; conditions: D-compounds panel data; 1 μM ATP; read-out: IC50 JAK3
T2 sequence (P52333 1-1124): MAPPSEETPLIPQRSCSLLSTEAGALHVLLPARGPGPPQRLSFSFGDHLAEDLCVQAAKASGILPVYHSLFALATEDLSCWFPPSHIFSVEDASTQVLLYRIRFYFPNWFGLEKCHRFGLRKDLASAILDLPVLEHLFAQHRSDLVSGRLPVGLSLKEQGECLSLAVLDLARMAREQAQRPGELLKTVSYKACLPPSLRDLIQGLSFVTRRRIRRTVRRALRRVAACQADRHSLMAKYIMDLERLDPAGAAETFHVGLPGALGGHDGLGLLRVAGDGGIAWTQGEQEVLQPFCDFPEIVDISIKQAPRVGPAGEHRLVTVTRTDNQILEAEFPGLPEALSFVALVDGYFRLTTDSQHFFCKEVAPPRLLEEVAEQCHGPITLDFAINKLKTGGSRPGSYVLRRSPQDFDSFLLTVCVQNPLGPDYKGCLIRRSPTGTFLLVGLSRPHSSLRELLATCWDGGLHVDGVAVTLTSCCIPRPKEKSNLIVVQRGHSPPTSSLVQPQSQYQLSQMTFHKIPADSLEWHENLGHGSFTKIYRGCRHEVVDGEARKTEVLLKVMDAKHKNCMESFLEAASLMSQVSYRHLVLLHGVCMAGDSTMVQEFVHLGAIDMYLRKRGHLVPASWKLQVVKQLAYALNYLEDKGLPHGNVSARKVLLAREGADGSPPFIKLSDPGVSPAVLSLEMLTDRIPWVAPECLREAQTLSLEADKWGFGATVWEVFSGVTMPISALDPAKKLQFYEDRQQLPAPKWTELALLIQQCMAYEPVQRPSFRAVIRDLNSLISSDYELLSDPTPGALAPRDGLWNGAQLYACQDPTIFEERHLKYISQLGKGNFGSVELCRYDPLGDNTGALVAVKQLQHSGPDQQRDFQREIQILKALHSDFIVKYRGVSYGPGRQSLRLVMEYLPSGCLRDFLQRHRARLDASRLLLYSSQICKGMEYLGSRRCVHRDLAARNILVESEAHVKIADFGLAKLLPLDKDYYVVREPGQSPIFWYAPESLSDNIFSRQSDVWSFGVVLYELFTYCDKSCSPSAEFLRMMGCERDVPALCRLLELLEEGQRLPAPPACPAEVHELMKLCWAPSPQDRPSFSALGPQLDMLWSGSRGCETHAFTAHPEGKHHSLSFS

| SMILES | IC50 (TEC) [nM] | IC50 (JAK3) [nM] |
| --- | --- | --- |
| C[C@@H]1[C@H](NC(=O)N(C)C)CCCN1c1cnc(C(N)=O)c(Nc2cc(C3CCOCC3)ns2)n1 [Example D-162, 5-[(2R,3R)-3-[(dimethylcarbamoyl)amino]-2-methylpiperidin-1-yl]-3-{[3-(oxan-4-yl)-1,2-thiazol-5-yl]amino}pyrazine-2-carboxamide] | ≤ 10 | 1000 to 10000 |
| C[C@@H]1[C@H](NC(=O)N(C)C)CCCN1c1cnc(C(N)=O)c(Nc2cc(C3CCN(C4CCCC4)CC3)ns2)n1 [Example D-163, 3-{[3-(1-cyclopentylpiperidin-4-yl)-1,2-thiazol-5-yl]amino}-5-[(2R,3R)-3-[(dimethylcarbamoyl)amino]-2-methylpiperidin-1-yl]pyrazine-2-carboxamide] | 10 to 100 | 100 to 1000 |
| Cc1cc(Nc2nc(N3CCCC(c4ncc(-c5ccccc5)[nH]4)C3)cnc2C(N)=O)sn1 [Example D-164, 3-[(3-methyl-1,2-thiazol-5-yl)amino]-5-[3-(4-phenyl-3H-imidazol-2-yl)piperidin-1-yl]pyrazine-2-carboxamide] | 100 to 1000 | 100 to 1000 |
| CN1CCN(c2ccc(Nc3nc(N4CCC[C@@H](n5ccc6cc(C7CC7)ccc6c5=O)C4)cnc3C(N)=O)cc2)CC1 [Example D-165, 5-[(3R)-3-(6-cyclopropyl-1-oxo-1,2-dihydroisoquinolin-2-yl)piperidin-1-yl]-3-{[4-(4-methylpiperazin-1-yl)phenyl]amino}pyrazine-2-carboxamide] | 10 to 100 | 1000 to 10000 |
| Cc1cc(Nc2nc(N3CCC[C@@H](n4ccc5cc(C6CC6)ccc5c4=O)C3)cnc2C(N)=O)sn1 [Example D-166, 5-[(3R)-3-(6-cyclopropyl-1-oxo-1,2-dihydroisoquinolin-2-yl)piperidin-1-yl]-3-[(3-methyl-1,2-thiazol-5-yl)amino]pyrazine-2-carboxamide] | > 10000 | > 10000 |
| CN1CCN(Cc2ccc(Nc3nc(N4CCC[C@@H](n5ccc6cc(C7CC7)ccc6c5=O)C4)cnc3C(N)=O)cc2)CC1 [Example D-167, 5-[(3R)-3-(6-cyclopropyl-1-oxo-1,2-dihydroisoquinolin-2-yl)piperidin-1-yl]-3-({4-[(4-methylpiperazin-1-yl)methyl]phenyl}amino)pyrazine-2-carboxamide] | 10 to 100 | 100 to 1000 |
| NC(=O)c1ncc(N2CCC[C@@H](n3ccc4cc(C5CC5)ccc4c3=O)C2)nc1Nc1ccc2ncccc2c1 [Example D-168, 5-[(3R)-3-(6-cyclopropyl-1-oxo-1,2-dihydroisoquinolin-2-yl)piperidin-1-yl]-3-[(quinolin-6-yl)amino]pyrazine-2-carboxamide] | 100 to 1000 | > 10000 |
